Reference: patent US10292999B2, “Treatment of enteric stress from heat and infection in humans and animals by supplementation with zinc and butyric acid” (Kemin Industries, Inc., priority 2015, dated 2019)

What was measured:
IPEC-J2 cells [1] = experiment: Trans-epithelial resistance (TER) of IPEC-J2 cells under heat stress; format: cell-based, pig; conditions: 300 μM, heat stress 41.5° C.; for trans-epithelial resistance versus un-treated heat stress cells: FIG. 2
Description: FIG. 2 is a chart of the effect of 300 μM concentration of different test compounds on the transepithelial resistance (TER) values of IPEC-J2 cells under heat stress conditions.
When animals undergo heat stress, the increased temperature leads to damage of the epithelial layer as well as withdrawal of tight junction proteins to the cytoplasm of the epithelial cells, thus compromising the tight junctions. The compromised tight junctions allow for toxins and other inflammatory substances to enter the systemic circulation. […] As reported in FIG. 2, cells were treated with the test compounds and incubated at 41.5° C. (Con-TN) Control-Thermoneutral conditions—37° C. (CON—HS)—Control-Heat Stress conditions—41.5° C. (Zn Sulf) 300 μM Zinc Sulfate under Heat Stress Conditions—41.5° C. (ZBA) 300 μM ZBA under Heat Stress Conditions—41.5° C. (CaBA) 300 μM Calcium and Butyric Acid Salt under Heat Stress Conditions—41.5° C.

IPEC-J2 cells [2] = conditions: 1 mM, normal conditions, vs control, FIG. 1

Row | Compound | trans-epithelial resistance versus un-treated heat stress cells (IPEC-J2 cells [1]) | trans-epithelial resistance (TER), 0 h (IPEC-J2 cells [1]) | trans-epithelial resistance (TER), 12 h (IPEC-J2 cells [1]) | trans-epithelial resistance (TER), 24 h (IPEC-J2 cells [1]) | trans-epithelial resistance (TER), 36 h (IPEC-J2 cells [1]) | trans-epithelial resistance (TER), 48 h (IPEC-J2 cells [1]) | trans-epithelial resistance (IPEC-J2 cells [2])
1 | CCCC(=O)[O-].CCCC(=O)[O-].[Zn+2] [ZBA, zinc salt of butyric acid in a molar ratio of 1:2] | improves the trans-epithelial resistance to the level of cells grown that are grown at thermoneutral conditions | 1.00 | 2.04 | 2.24 | 2.60 | 2.76 | increased trans-epithelial resistance
2 | O=S(=O)([O-])[O-].[Zn+2] [Zinc Sulfate] | do not improve the trans-epithelial resistance | 1.00 | 1.67 | 1.89 | 2.19 | 2.31 | 
3 | Calcium and Butyric Acid Salt [Calcium Butyric Acid Salt] | do not improve the trans-epithelial resistance | 1.00 | 1.58 | 1.74 | 1.96 | 2.10 | 
